This experiment concerns the target T1, PTP1B (Homo sapiens, UniProt P18031, C32S/C92V/K197C).
T1 construct: gene PTPN1; residues 1–321
T1 sequence (P18031 1-321 C32S/C92V/K197C): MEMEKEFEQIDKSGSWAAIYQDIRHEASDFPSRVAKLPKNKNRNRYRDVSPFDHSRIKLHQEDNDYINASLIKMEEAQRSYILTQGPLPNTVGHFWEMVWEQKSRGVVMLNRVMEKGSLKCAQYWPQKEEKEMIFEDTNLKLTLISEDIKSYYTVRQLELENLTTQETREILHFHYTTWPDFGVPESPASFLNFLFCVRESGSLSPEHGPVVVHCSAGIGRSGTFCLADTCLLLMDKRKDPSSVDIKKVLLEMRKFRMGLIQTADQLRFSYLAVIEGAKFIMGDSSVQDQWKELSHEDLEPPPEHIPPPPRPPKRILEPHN
Put plainly: crystal structure of tethered complex ([…] Å); mass-spectrometry tethering EC50 […]; pNPP inhibition Ki. In kind it is biochemical.

With `CN(C)CCSSCC(=O)Nc1cc(-c2ccc(F)cc2F)ccc1O` [compound 2, 2], the affinity corresponds to a Ki of 7.1 ± 1.1 µM.

For the origin of these results see article PMC6039181, “An expanded allosteric network in PTP1B by multitemperature crystallography, fragment screening, and covalent tethering” (eLife, 2018).
